Measured values: patent US6821927B1 (priority 1999, dated 2004)

Assay: log P determination by HPLC (EEC directive 79/831 Annex V. A8)
Type: physicochemical
[1] = HPLC, gradient method, acetonitrile/0.1% aqueous phosphoric acid

SMILES	chromatographic logP [1]	further results
CON=C(C(=O)N(C)OC(C)=O)c1ccccc1Oc1ncnc(Oc2ccccc2Cl)c1F [Example 3, N-(Acetyloxy)-2-(2-{[6-(2-chlorophenoxy)-5-fluoro-4-pyrimidinyl]oxy}phenyl)-2-(methoxyimino)-N-methylacetamide]	–	chromatographic logP (HPLC (gradient method)): 3.52
CON=C(C(=O)N(C)O)c1ccccc1Oc1ncnc(Oc2cccc(Cl)c2C)c1F [Example 5]	3.29	–
CON=C(C(=O)N(C)O)c1ccccc1Oc1ncnc(Oc2ccccc2F)c1F [Example 4]	2.66	–
CON=C(C(=O)N(C)O)c1ccccc1Oc1ncnc(Oc2cc(Cl)ccc2Cl)c1F [Example 6]	3.28	–
CON=C(C(=O)NO)c1ccccc1Oc1ncnc(Oc2ccccc2Cl)c1F [Example 2, 2-(2-{[6-(2-Chlorophenoxy)-5-fluoro-4-pyrimidinyl]oxy}phenyl)-N-hydroxy-2-(methoxyimino)-acetamide]	–	chromatographic logP (HPLC): 2.56
CON=C(C(=O)N(C)OC)c1ccccc1Oc1ncnc(Oc2ccccc2Cl)c1F [Example 9]	3.5	–
CON=C(C(=O)OC)c1ccccc1Oc1ncnc(Oc2ccccc2Cl)c1F [Example (VI-1), Methyl 2-{2-[6-(2-chlorophenoxy)-5-fluoro-pyrimidin-4-yloxy]-phenyl}-2-methoxyiminoacetate]	–	chromatographic logP (HPLC): 3.61
CON=C(C(=O)N(C)O)c1ccccc1Oc1ncnc(Oc2ccccc2C#N)c1F [Example 8]	2.43	–
CON=C(C(=O)N(C)O)c1ccccc1Oc1ncnc(Oc2cccc(Cl)c2Cl)c1F [Example 7]	3.22	–
CON=C(C(=O)N(C)O)c1ccccc1Oc1ncnc(Oc2ccccc2Cl)c1F [Example 1]	–	logP (HPLC): 2.82
